Data as given in patent US11517575B2, “Use of minaprine to reduce tumor growth” (Institut Gustave-Roussy, priority 2019, dated 2022).

What was measured:
[1] = test system: HCT116 cells; experiment: Screening of chemical libraries for IR-mediated cellular cannibalism (imaging flow cytometry, confocal validation); assay type: cell-based, human; conditions: 8 Gy irradiated HCT116 cells, 10 μM compound, 24 h culture
Experimental: FIG. 4 Identification of cannibalism modulators triggered by ionizing radiation. Compounds from the Prestwick (A) and CEA (F) libraries were tested for their capacities to induce cellular cannibalism after ionizing radiation. Cannibal cells were detected after homotypic cultures of 8 gray γ-irradiation HCT116 cells in the presence or absence of 10 μM of the Prestwick (A) and CEA […] library compounds. Each dot represents one compound. Representative images are shown in (B, G). (C, H) HCT116 cells were treated with the indicated drugs. After 24 h of treatment, cell death was monitored by staining with 3,3 dihexyloxacarbocyanine iodide (DiOC6(3)) and PI^+, and the percentage of dying (DiOC6(3)^low PI^−, open bars) and dead (DiOC6(3)^low PI^+, closed bars) cells was determined by cytofluorometry. Validation of the cannibalism inducers by fluorescent microscopy. Representative images (D, I) and quantification (E, J) are shown. Results are means s.e.m. of triplicate determinations.
Untreated HCT116 cells were labeled with CMFDA (green fluorescence, CMFDA^+) or CMTMR, (red fluorescence, CMTMR) and treated HCT116 cells with CMFDA (green fluorescence, CMFDA^+). The following cell mixtures were performed: untreated CMTMR^+ HCT116 cells were mixed with untreated CMFDA^+ HCT116 cells, or untreated CMTMR^+ HCT116 cells were mixed with treated CMFDA^+ HCT116 cells. Then, cells were co-cultured during 24 hours in the presence or absence of the pharmacological inhibitor of ROCK, Y27632 (30 μM), the pan-caspase inhibitor, Z-VAD-fmk (ZVAD, 100 μM), the inhibitor of caspase-1, Ac-YVAD-cmk (YVAD, 100 μM), the necroptosis inhibitor, Necrostatin-1 (NEC1, 30 μM), the inhibitor of the vacuolar type H(+)-ATPase (V-ATPase) inhibiting autophagy, Bafilomycin A1 (BafA1, 50 nM), the inhibitor of Cdks with an anti-mitotic activity, Roscovitine (Rosco, 10 μM). After 24 hours of co-culture, both detached and adherent cells were collected and stained with Hoechst […] (10 μg/mL) during 1 hour at 37° C. in warmed complete medium. To detect phosphatidylserine (PS) exposure and plasma membrane permeability, labeled HCT116 cells were successively incubated with Biotin-AnnexinV (BD Pharmingen) as recommended by manufacturer, […] BV786-Streptavidin (BD Biosciences) and 3 μM DRAQ7 (BioStatus) during 15 minutes at 25° C. After washing with PBS solution, samples were immediately analyzed using an imaging flow cytometer FlowSight® (Amnis®, part of EMD Millipore). Data were acquired at a 20× magnification, using INSPIRE software. The 405 nm, 488 nm, and 561 nm lasers were used for excitation. Brightfield, Annexin V-BV786, DRAQ7, CMFDA, CMTMR and Hoechst […] stainings were detected using respectively channels for 420-480 nm, 745-800 nm, 642-745 nm, 480-560 nm, 595-642 nm and 430-505 nm. At least 1000 events of cells per sample were analyzed. Additional single-labeled controls were prepared to normalize fluorescent signal across different channels. Acquired data were analyzed using the IDEAS analysis software (v6.1; Merck-Millipore). Gating strategy was the following. Cells were gated for focused cells using the Gradient RMS feature. Cells were gated for single cells using the aspect ratio and area features. For the cannibalism detection, cells were gated in the double positive CMFDA^+ and CMTMR^+ staining.
To detect PS exposure, plasma membrane permeability and cell cycle progression, cells were after co-culture sequentially labeled with specific fluorescent probes (such as FITC-conjugated AnnexinV, propidium iodide, and Hoechst 33342) and analyzed by flow cytometry. Both detached and adherent cells were collected and stained with Hoechst […] (10 μg/ml) during 1 hour at 37° C. in warmed complete medium. After washing with PBS, HCT116 cells were suspended in 1× binding buffer supplemented with fluorescein isothiocyanate (FITC)-conjugated Annexin V (BD Biosciences) and propidium iodide (PI, 1 μg/mL) (Sigma), as per manufacturer's instructions. […]

[2] = test system: CT26 cells; experiment: Anti-tumor vaccination assay, CT26 cells in BALB/c mice; assay type: in vivo, mouse; conditions: for frequency of mice showing a protective response: 8 Gy + 10 μM compound 24 h
Experimental: FIG. 5. Identification of cannibalism modulators as immunogenic cell death inducers. MCA205 (A) or CT26 (E, I, M, Q) cells were treated with the indicated drugs. After 24 h of coculture with the indicated treatment, cell death was monitored by staining DiOC6(3) and PI, and the percentage of dying (DiOC6(3)^low PI^−, open bars) and dead (DiOC6(3)^low PI^+, closed bars) cells was determined by cytofluorometry. (B-D) MCA205 cells or (F-H, J-L, N-P, R-T) CT26 cells cocultured after x irradiation with the indicated compounds were inoculated subcutaneously into the right flank of […] or BALB/c mice, respectively. Seven days later, the mice were rechallenged with live cells injected into the opposite flank, and tumor growth was monitored (five mice per group).
FIG. 6. Tumor vaccination experiments. CT26 cells were treated for 24 hours with 10 μM VP331 (A, F, K), 10 μM Minaprine (B, G, L), 10 μM Lopa87 (C, H, M), 10 μM SG6163F (D, I, N), 10 μM Azaguanine-8 (8-aza) (E, J, O) alone or combined with 8 Gy ionizing radiation and inoculated (s.c.) into immunocompetent BALB/c mice, which were rechallenged at the opposite flank 7 days later with the same cancer cells. The percentage of tumor-free mice was evaluated three times a week for the following 38 days. Percentage of total tumor free mice (A-E), tumor free-mice at the first injection site (F to J, P) or at the second injection site (K to O, Q) are shown. (*P<0.05, **P<0.01, ***P<0.001, two-way ANOVA).
The combination of IRCCE with IR induces efficient antitumor immunity. Considering that immunogenic cell death (ICD) inducers were identified (such as Digoxin, Digitoxin, Lanatoside C or Doxorubicin hydrochloride)^3, 4, 48-51) as IRCCE, the ability of these compounds to induce an antitumor immunity after radiotherapy was evaluated. First, a preclinical approaches was developed to study the immunological effects of IRCCE on two mouse models of carcinoma (colon CT26 carcinoma and fibrosarcoma MCA205). Initially, the ability of the combination of IRCCE+IR to trigger a specific anti-tumor immune response was appreciated using immunocompetent mice through anti-tumor vaccination assays. According to previously published studies^52, the injection of cancer cells succumbing to an immunogenic cell death (ICD) into immunocompetent mice must elicit a protective immune response that is specific for tumor antigens. Thus, 3×10^5 MCA205 cells were first treated with 10 μM of SG6163F for 24 hours. Then, treated cells were inoculated subcutaneously in 200 μl PBS into the lower flank of 8-week-old female C57BL/6 mice. One week later, 3×10^4 untreated control cells were inoculated into the contralateral flank of mice. Tumors were evaluated weekly using a common caliper. Animals bearing tumors that exceeded 20-25% body mass were euthanatized. […] Then, 3×10^6 CT26 cells were irradiated with 8 Gy in presence of 10 μM of SG6163F (FIGS. 5E and 5F), VP331 (FIGS. 5I and 5J), Minaprine dihydrochloride (FIGS. 5M and 5N) or LOPA87 (FIGS. 5Q and 5R) for 24 hours. Then, cells were inoculated as previously described subcutaneously in […] into the lower flank of 8-week-old female BALB/c mice. One week later, 5×10^5 untreated control cells were inoculated into the contralateral flank of mice and tumors were evaluated weekly using a common caliper. As previously mentioned, animals bearing tumors that exceeded 20-25% body mass were euthanatized. The percentage of dying cells in each condition was evaluated by determining with DiOC(6)3/IP staining (FIGS. 5E, 5I, 5M and 5Q). Finally, the ability of these compounds to repress the growth of cancer cells that have been injected 7 days after injection of irradiated and treated cancer cells was appreciated.
A second anti-tumor vaccination assay was done on CT26 mouse models of carcinoma as previously described. […]

[3] = second assay: CT26 cells, rechallenge 7 days later
[4] = first assay: CT26 cells, rechallenge one week later

Row | Compound | enhancement of IR-mediated cellular cannibalism [1] | protective response after injection of cancer cells ([2]; second assay: CT26 cells treated with 10 μM compound alone (no IR)) | frequency of mice showing a protective response [2, 3] | frequency of mice showing a protective response [2, 4]
1 | CN1c2ccccc2C(=O)N(c2ccccc2)C1c1ccc(-c2csc(CO)n2)s1 (stereo not shown) [VP43] | efficient cellular cannibalism enhancer |  |  | 
2 | COc1cc(O)ccc1/C=N/c1ccccc1C(=O)Nc1ccccc1 [RN-1-026] | efficient cellular cannibalism enhancer |  |  | 
3 | CC(=O)O[C@H]1C[C@H](O[C@H]2[C@@H](O)C[C@H](O[C@H]3[C@@H](O)C[C@H](O[C@H]4CC[C@@]5(C)[C@H](CC[C@@H]6[C@@H]5C[C@@H](O)[C@]5(C)[C@@H](C7=CC(=O)OC7)CC[C@]65O)C4)O[C@@H]3C)O[C@@H]2C)O[C@H](C)[C@H]1O[C@@H]1O[C@H](CO)[C@@H](O)[C@H](O)[C@H]1O [Lanatoside C] | efficient cellular cannibalism enhancer |  |  | 
4 | Nc1nc2[nH]nnc2c(=O)[nH]1 [Azaguanine-8] | efficient cellular cannibalism enhancer | induce an increase of protective response | Significant increases in the frequency of mice showing a protective response | 
5 | COc1ccc(C)cc1/C=N/[C@@H]1C[C@@H]2C[C@H]([C@H]1C)C2(C)C [VP331] | efficient cellular cannibalism enhancer |  | Significant increases in the frequency of mice showing a protective response | significant increase in the frequency of mice showing a protective response
6 | C[C@H]1O[C@@H](O[C@H]2[C@@H](O)C[C@H](O[C@H]3[C@@H](O)C[C@H](O[C@H]4CC[C@@]5(C)[C@H](CC[C@@H]6[C@@H]5C[C@@H](O)[C@]5(C)[C@@H](C7=CC(=O)OC7)CC[C@]65O)C4)O[C@@H]3C)O[C@@H]2C)C[C@H](O)[C@@H]1O [Digoxin] | efficient cellular cannibalism enhancer |  |  | 
7 | CC(C(=O)O)c1ccc(-c2ccccc2)c(F)c1 (stereo not shown) [Flurbiprofen] | efficient cellular cannibalism enhancer |  |  | 
8 | COc1cccc2c1C(=O)c1c(O)c3c(c(O)c1C2=O)C[C@@](O)(C(=O)CO)C[C@@H]3O[C@H]1C[C@H](N)[C@H](O)[C@H](C)O1.Cl [Doxorubicin hydrochloride] | efficient cellular cannibalism enhancer |  |  | 
9 | CN(C)c1ccc(-c2cc(=O)[nH]c(-c3ccccc3)n2)cc1 [LOPA87] | efficient cellular cannibalism enhancer |  | Significant increases in the frequency of mice showing a protective response | significant increase in the frequency of mice showing a protective response
10 | CN1CCc2c(c3ccccc3n2Cc2ccccc2)C1 [Mebhydroline 1,5-naphtalene-disulfonate] | efficient cellular cannibalism enhancer |  |  | 
11 | O=C(N/N=C/c1ncc[nH]1)NC12CC3CC(CC(C3)C1)C2 [VP450] | efficient cellular cannibalism enhancer |  |  | 
12 | C[C@H]1O[C@@H](O[C@H]2[C@@H](O)C[C@H](O[C@H]3[C@@H](O)C[C@H](O[C@H]4CC[C@@]5(C)[C@H](CC[C@@H]6[C@@H]5CC[C@]5(C)[C@@H](C7=CC(=O)OC7)CC[C@]65O)C4)O[C@@H]3C)O[C@@H]2C)C[C@H](O)[C@@H]1O [Digitoxin] | efficient cellular cannibalism enhancer |  |  | 
13 | Myricetin | efficient cellular cannibalism enhancer |  |  | 
